Results published in patent US7872101B1, “Modulators of the orphan G protein-coupled receptors GPR78 and GPR26” (Schering Corporation, priority 2006, dated 2011).
Read-outs that look alike come from different tables or passages of the source.

Tests used:
GPR78 [1] = target: T1, GPR78 (Homo sapiens, UniProt Q96P69); experiment: cre-luciferase cAMP reporter assay in GPR78-transfected HEK293/cre-luc cells; type: cell-based; conditions: for cAMP level compared with GPR78-expressing cells stimulated with buffer (Basal): Tyrphostin B42 at 23 μM, Tyrphostin A9 at 24 μM; for cAMP stimulation: final concentration 300 μM in 1.5% DMSO, luciferase reporter assay and direct cAMP measurement (Perkin-Elmer kit); for cAMP level compared to buffer control / genistein: isoflavones, FIG. 3; for effect on genistein-induced cAMP: FIG. 6A
T1 construct: Full length open reading frames (ORFS) of GPR78 and GPR26 were obtained with PCR; expressed in transfected cells; host or cells: HEK293/cre-luc
Experimental: (§1) HEK293/cre-luc cells were harvested by 0.05% trypsin EDTA buffer, cells re-suspended in complete culture medium 20 million in […] transfection cuvette, 1 microgram receptor plasmid was transfected into reporter cells by electroporation method. The parameter of the GenePulser (Bio-Rad Laboratories, Hercules, Calif.) was set at: voltage 200 volts and capacity 500 microfarads. After electroporation, cells were re-suspended at a density of 25,000 cells in 25 μl complete medium, placed in 384-well plate. After 24 hours of transfection, the transfection medium was replaced with fresh complete medium. Empty plasmid vector was transfected as a negative control (mock transfection).
When inhibitors were used in the assay, they were added 30 minutes before cell stimulation. At the end of incubation, 25 μl of Bright-Glo™ obtained from Promega (Madison, Wis.) was added into each well. Luciferase activity was determined with a luminometer (Luminoskan Ascent®, Thermo-Electron Corp.), at a speed of 100 milliseconds per well.
Response of cells with the expressed receptor to test ligand stimulation was subject to two types of detection: intracellular cAMP accumulation and intracellular Ca2+ flux monitored with fluorescent intensity using a Fluorimetric Image Plate Reader (FLIPR).

protein tyrosine kinase = conditions: literature values; for genistein depending on the substrates used; read-out: IC50, inhibition of protein tyrosine kinase; cited from earlier work
adenylyl cyclase = conditions: cell-free enzyme assays, ref [28]; read-out: published IC50; cited from earlier work
GPR30 = target: T2, GPR30 (Homo sapiens, UniProt Q99527); conditions: Gβγ-mediated pathway, ref [25]; cited from earlier work
T2 construct: host or cells: MCF-7, MDA-MB-231, SKBR3 (as cited)

GPR78 [2] = target: T1, GPR78; experiment: direct intracellular cAMP measurement (Meso Scale Discovery kit) in HEK293/cre-luc cells stably transfected with GPR78; type: cell-based; conditions: FIG. 2C, read-out: EC50, increase of cAMP level
Experimental: (§2) Constructs PCR3.1-GPR78 and PCR3.1-GPR26 were transfected into HEK293/cre-luc cells with use of Lipofectamine™ 2000 and cells were selected for G418 resistance. Cells resistant to G418 were further diluted and selected for individual colonies. Cell lines grown from the G418-resistant colonies were screened for positive response with genistein in the Cre-Luciferase cAMP assay.
(§3) Intracellular cAMP was measured directly with a cAMP kit purchased from Meso Scale Discovery (Gaithersburg, Md., Ma6000 cAMP 384-well Kit, Catalog number K210FDD-2). The assay was preformed by following the manufacturer's protocol. Briefly, stable HEK293/cre-luc cells expressing GPR78 or GPR26 were harvested, washed with PBS and resuspended at 300,000/10 μl of assay buffer (from the kit) containing 0.5 mM IBMX. Genistein at appropriate concentrations was diluted in the cAMP assay buffer and 5 μl was added into wells of the assay plate. The mixture was then incubated at room temperature for 30 minutes. Light intensity in assay wells was measured using a MSD SI6000 instrument obtained from Meso Scale Discovery.

GPR78 [3] = target: T1, GPR78; experiment: Ca2+ flux assay (FLIPR) in GPR78-expressing HEK/cre-luc cells; type: cell-based; conditions: genistein at concentrations near 100 μM, FIG. 5
From the text: Response of cells with the expressed receptor to test ligand stimulation was subject to two types of detection: intracellular cAMP accumulation and intracellular Ca2+ flux monitored with fluorescent intensity using a Fluorimetric Image Plate Reader (FLIPR). For cAMP measurement, a HEK293 cell line that had been stably transfected with luciferase reporter gene, was used as a host cell transiently transfected with the pCR3.1-GPR78 construct described in Example 1.
(§4) Ca2+ flux measurements were taken to test if GPR78, when activated with genistein, is coupled to the Gq-mediated pathway.

GPR26 [4] = target: T3, GPR26 (Homo sapiens, UniProt Q8NDV2); experiment: cre-luciferase cAMP reporter assay in GPR26-transfected HEK293/cre-luc cells; type: cell-based; conditions: cre-luc reporter assay, transient transfection, FIG. 8A; read-out: EC50, activation of GPR26
T3 construct: Full length open reading frames (ORFS) of GPR78 and GPR26 were obtained with PCR; expressed in transfected cells; host or cells: HEK293/cre-luc
Experimental: as §1
Forty hours after transfection, cells were stimulated by adding 5 μl of ligand in 60 μM 4-(3-butoxy-4-methoxy-benzyl)-2-Imidazolidinone in 293 SFM II serum-free media obtained from Gibco (Gaithersburg, Md.), and incubated for 6 hours at 37° C. in a 5% CO2-95% air incubator. […] Luciferase activity was determined with a luminometer (Luminoskan Ascent®, Thermo-Electron Corp.), at a speed of 100 milliseconds per well.
(§5) GPR26, another orphan GPCR, shares 51% identity in the seven transmembrane regions with GPR78 ([19]). […] HEK293/cre-luc cells were transiently transfected with pCR3.1-GPR26 and monitored cAMP levels upon stimulation with genistein. […]

GPR26 [5] = target: T3, GPR26; experiment: direct intracellular cAMP measurement (Meso Scale Discovery kit) in HEK293/cre-luc cells stably transfected with GPR26; type: cell-based; conditions: cells stably expressing GPR26, FIG. 8B
Experimental: as §2, §3, §5

NO synthase (NOS) = NO synthase (NOS) (Mus musculus, UniProt P29477); conditions: read-out: IC50, inhibition of NOS; cultured peritoneal macrophages, ref [40]; cited from earlier work
GPR26 [6] = target: T3, GPR26; experiment: antagonist cre-luc reporter assay, inhibition of GPR26 activation; type: cell-based
Experimental: (§6) Screening was performed by using cells transiently expressing GPR26 or GPR78. HEK293/cre-luc cells were harvested by using 0.05% trypsin EDTA solution, and were suspended in complete culture medium at a density of 20 million in 0.4 ml transfection cuvettes. One 1 microgram plasmid construct containing GPR78 or GPR26 cDNA was transfected into reporter cells by electroporation using the GenePulser (Bio-Red Laboratories, Hercules, Calif.). The transfection conditions were: voltage at 200 volts and capacity at 500 microfarads. After electroporation, cells were suspended at a density of 25,000 cells in 25 μl complete medium and placed in a 384-well plate. After 24 hours of transfection, the transfection medium was replaced with fresh complete medium. Empty plasmid vector was transfected as a negative control (mock transfection). The compounds were arranged in 96-well format in eight racks of 80, with one compound per well (250 μl at 10 mM in DMSO). […] By the end of incubation, 25 ul of Bright-Glo™ (Promega, Madison, Wis.) was added into each well. Luciferase activity was determined with a Luminometer (Luminoskan Ascent, Thermo Labsystems), at a speed of 100 milliseconds per well.
(§7) To determine the inhibitory potency of the two molecules, dose-response curves were generated with the same assay method and IC50 values calculated from the curves.

GPR78 [7] = target: T1, GPR78; experiment: antagonist cre-luc reporter assay, inhibition of GPR78 activation; type: cell-based
Experimental: as §6, §7

rabbit aortic rings = conditions: read-out: IC50, block of acetylcholine-induced relaxation, ref [40]; cited from earlier work
GPR154 = target: T4, GPR154 (Homo sapiens, UniProt Q6W5P4); experiment: Ca2+ flux assay (FLIPR), positive control receptor; type: cell-based; conditions: FIG. 5
T4 construct: expressed in transfected cells; host or cells: HEK293/cre-luc
T4 sequence (Q6W5P4 1-371): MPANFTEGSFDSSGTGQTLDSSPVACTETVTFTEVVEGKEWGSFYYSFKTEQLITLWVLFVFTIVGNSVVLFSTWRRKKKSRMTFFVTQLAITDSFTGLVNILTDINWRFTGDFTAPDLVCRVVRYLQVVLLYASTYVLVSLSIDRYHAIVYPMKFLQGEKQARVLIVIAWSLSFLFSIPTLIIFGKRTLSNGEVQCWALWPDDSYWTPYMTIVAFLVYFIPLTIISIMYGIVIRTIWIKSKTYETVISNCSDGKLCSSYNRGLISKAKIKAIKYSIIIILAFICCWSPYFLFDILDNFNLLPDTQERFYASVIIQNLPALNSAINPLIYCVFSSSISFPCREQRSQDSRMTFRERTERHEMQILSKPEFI
From the text: as §4

protein kinase A = conditions: ref [27]; read-out: reported IC50 of H89; cited from earlier work

T3 sequence (Q8NDV2 whole entry): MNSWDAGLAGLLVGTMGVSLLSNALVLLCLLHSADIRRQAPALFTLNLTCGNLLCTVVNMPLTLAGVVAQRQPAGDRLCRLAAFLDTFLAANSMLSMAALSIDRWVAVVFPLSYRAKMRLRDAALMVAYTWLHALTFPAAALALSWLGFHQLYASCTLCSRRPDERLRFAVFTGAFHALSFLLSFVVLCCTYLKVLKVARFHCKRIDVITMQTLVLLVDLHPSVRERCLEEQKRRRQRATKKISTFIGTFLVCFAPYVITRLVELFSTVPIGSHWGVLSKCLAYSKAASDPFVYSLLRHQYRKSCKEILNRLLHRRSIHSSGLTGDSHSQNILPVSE
T1 sequence (Q96P69 whole entry): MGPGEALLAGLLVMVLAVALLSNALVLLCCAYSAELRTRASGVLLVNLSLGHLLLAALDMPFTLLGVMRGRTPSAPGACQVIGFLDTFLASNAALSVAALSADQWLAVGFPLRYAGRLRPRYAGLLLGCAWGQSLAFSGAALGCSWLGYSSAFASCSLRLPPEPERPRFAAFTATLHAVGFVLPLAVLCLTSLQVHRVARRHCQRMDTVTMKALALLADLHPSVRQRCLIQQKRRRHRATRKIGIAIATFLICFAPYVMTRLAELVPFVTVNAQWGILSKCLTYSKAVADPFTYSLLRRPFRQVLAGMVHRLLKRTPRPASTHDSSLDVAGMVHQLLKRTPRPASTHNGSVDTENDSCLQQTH
T2 sequence (Q99527 whole entry): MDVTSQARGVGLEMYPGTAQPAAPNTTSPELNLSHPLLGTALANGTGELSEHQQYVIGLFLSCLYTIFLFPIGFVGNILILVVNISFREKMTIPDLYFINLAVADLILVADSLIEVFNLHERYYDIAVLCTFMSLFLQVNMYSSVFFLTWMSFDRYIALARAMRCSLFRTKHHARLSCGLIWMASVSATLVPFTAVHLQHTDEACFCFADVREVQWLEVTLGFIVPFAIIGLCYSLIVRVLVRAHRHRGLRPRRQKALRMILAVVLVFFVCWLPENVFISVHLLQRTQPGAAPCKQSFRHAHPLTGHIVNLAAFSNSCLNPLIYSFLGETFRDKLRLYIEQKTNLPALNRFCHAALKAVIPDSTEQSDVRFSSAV
Sequence of NO synthase (NOS) (P29477 whole entry): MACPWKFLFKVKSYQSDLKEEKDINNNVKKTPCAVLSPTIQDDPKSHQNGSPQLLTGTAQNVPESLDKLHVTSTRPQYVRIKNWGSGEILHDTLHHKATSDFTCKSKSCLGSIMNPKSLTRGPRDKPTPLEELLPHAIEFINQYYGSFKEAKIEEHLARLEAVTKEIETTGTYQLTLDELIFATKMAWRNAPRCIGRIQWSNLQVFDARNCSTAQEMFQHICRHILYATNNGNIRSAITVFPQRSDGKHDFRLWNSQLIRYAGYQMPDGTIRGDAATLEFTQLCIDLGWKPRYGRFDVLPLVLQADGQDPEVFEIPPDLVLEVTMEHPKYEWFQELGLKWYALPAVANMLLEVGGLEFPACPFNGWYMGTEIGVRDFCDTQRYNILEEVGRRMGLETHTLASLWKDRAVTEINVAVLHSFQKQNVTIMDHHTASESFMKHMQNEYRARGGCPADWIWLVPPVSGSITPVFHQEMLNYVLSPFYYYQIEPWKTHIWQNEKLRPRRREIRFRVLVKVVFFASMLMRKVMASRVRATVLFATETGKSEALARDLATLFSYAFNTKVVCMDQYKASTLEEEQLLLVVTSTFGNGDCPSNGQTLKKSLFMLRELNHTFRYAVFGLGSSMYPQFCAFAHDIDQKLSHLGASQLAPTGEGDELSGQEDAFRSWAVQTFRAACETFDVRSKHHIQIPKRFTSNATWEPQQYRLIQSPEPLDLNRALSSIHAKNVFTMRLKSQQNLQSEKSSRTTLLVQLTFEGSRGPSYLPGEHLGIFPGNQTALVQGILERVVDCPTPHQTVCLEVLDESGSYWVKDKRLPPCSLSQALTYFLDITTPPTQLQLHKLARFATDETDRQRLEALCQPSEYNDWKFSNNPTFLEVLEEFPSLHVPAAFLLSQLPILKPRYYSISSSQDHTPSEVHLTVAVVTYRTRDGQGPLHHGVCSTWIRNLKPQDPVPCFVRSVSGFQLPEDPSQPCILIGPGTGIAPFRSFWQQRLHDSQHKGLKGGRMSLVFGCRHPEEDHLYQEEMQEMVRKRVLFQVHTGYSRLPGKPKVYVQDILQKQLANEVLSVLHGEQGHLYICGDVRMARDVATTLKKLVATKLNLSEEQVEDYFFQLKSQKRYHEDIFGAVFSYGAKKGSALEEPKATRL

For `CC(C)(C)c1cc(C=C(C#N)C#N)cc(C(C)(C)C)c1O` [Tyrphostin A9], the “cAMP level compared with GPR78-expressing cells stimulated with buffer (Basal)” value (GPR78 [1]; FIG. 1) is given as “not higher than the level in GPR78-expressing cells stimulated with buffer” and the IC50 (protein tyrosine kinase) is given as 0.04 to 9 µM.
For `Nc1ncnc2c1ncn2C1CCCO1` (centres unmarked) [SQ22536, 9-(Tetrahydro-2-furanyl)-9H-purin-6-amine], the “reduction of genistein-stimulated cAMP” value (GPR78 [1]; SQ22536 at 20 μM pre-incubated, FIG. 7) is listed as 25%, the “reduction of cAMP level resulting from constitutive activity of GPR78” value (GPR78 [1]; SQ22536 at 20 μM pre-incubated, absence of genistein, FIG. 7) is listed as 34% and the IC50 (adenylyl cyclase) is listed as 20 µM.
With `O=c1c(-c2ccc(O)cc2)coc2cc(O)cc(O)c12` [genistein] the EC50 (GPR78 [1]) was 6 to 10 µM, the “increase of luciferase activity (cAMP production) compared to the mock transfection control” value (GPR78 [1]; 25 μM genistein, transiently transfected cells, FIG. 1) was “more than 8 fold” and the EC50 (GPR78 [1]; FIG. 2A, read-out: EC50, induction of cAMP) was 7 µM. For the same compound, the IC50 (protein tyrosine kinase) was 1 to 22 µM, the “potency of GPR30 activation” value (GPR30) was “low μM range” and the EC50 (GPR78 [2]) was ~6 µM. For the same compound, the “activation in Ca++ flux assay” value (GPR78 [3]) was “not activated”, the EC50 (GPR26 [4]) was ~10 µM and the cAMP production (GPR26 [5]) was “stimulated cAMP production”.
In the case of `c1ccc2c(c1)[I+]c1ccccc1-2` [diphenyleneiodonium Cl, Diphenyleneiodonium Cl], the IC50 (NO synthase (NOS)) is listed as 0.03 µM, the IC50 (GPR26 [6]) is listed as 39 µM and the IC50 (GPR78 [7]) is listed as 65 µM. For the same compound, the IC50 (rabbit aortic rings) was 0.3 µM.
In the case of `N#C/C(=C\c1ccc(O)c(O)c1)C(=O)NCc1ccccc1` [Tyrphostin B42], the “cAMP level compared with GPR78-expressing cells stimulated with buffer (Basal)” value (GPR78 [1]; FIG. 1) is listed as “not higher than the level in GPR78-expressing cells stimulated with buffer” and the IC50 (protein tyrosine kinase) is listed as 20 µM.
In the case of `CC(=O)[C@H]1CC[C@H]2[C@@H]3CCC4=CC(=O)CC[C@]4(C)[C@H]3CC[C@]12C` [progesterone], the cAMP stimulation (GPR78 [1]) is reported as “No cAMP stimulation was observed”.
For `COc1ccc(-c2coc3cc(O)cc(O)c3c2=O)cc1` [biochanin A], the “cAMP level compared to buffer control / genistein” value (GPR78 [1]) was “only slightly induced cAMP levels”.
`C[n+]1cc2c3c(ccc2c2ccc4cc5c(cc4c21)OCO5)OCO3` [sanguinarine Cl hydrate] showed an IC50 (GPR26 [6]; cre-luc reporter assay, dose-response curves, read-out: IC50, inhibition of GPR26 activation) of 0.26 µM and an IC50 (GPR78 [7]; cre-luc reporter assay, dose-response curves, read-out: IC50, inhibition of GPR78 activation) of 0.65 µM.
In the case of “neuropeptide S (SFRNGVGTGMKKTSFQRAKS) [ligand of GPR154, positive control in Ca2+ flux assay]”, the “response in Ca2+ flux assay” value (GPR154) is reported as “responded to neuropeptide S acutely”.
For `C[C@]12CC[C@H]3[C@@H](CCC4=CC(=O)CC[C@@]43C)[C@@H]1CC[C@@H]2O` [testosterone], the cAMP stimulation (GPR78 [1]) was “No cAMP stimulation was observed”.
With `O=c1c(-c2ccc(O)cc2)coc2cc(O)ccc12` [daidzein] the “cAMP level compared to buffer control / genistein” value (GPR78 [1]) was “significantly increased cAMP level comparable to that by genistein”.
For `Cl.Cl.O=S(=O)(NCCNCC=Cc1ccc(Br)cc1)c1cccc2cnccc12` [H89, N-[2-(p-bromocinnamylamino)ethyl]-5-isoquinolinesulfonamide dihydrochloride], the IC50 (protein kinase A) is given as 0.05 µM, the “effect on genistein-induced cAMP” value (GPR78 [1]; 10 μM H89, 30 min pre-incubation) is given as “Most of genistein-induced cAMP was reduced” and the “effect on basal (constitutive) cAMP level” value (GPR78 [1]; 10 μM H89, compared to cells with no H89, FIG. 6A) is given as “decrease of the basal cAMP level by approximately half”. For the same compound, the “effect on genistein-induced cAMP” value (GPR78 [1]; 100 μM H89, 30 min pre-incubation) was “all cAMP accumulation was abolished” and the “effect on basal (constitutive) cAMP level” value (GPR78 [1]; 100 μM H89, FIG. 6A) was “completely inhibited cAMP accumulation”.
